Data from US20250066370A1, “BICYCLIC TRIAZINE DERIVATIVES FOR THE TREATMENT OF CANCER” (DEUTSCHES KREBSFORSCHUNGSZENTRUM, priority 2022, published 2025).

What was measured:
Assay type in all cases: cell-based
AU565 = assay: Proliferation assay: cell line panel, AU565; conditions: Homo sapiens, 96 h, breast cancer, HER2 positive, 4 days, read-out: Result Category, IC50 (mean)
Source text: (§1) Human tumour cells were originally obtained from the American Type Culture Collection (ATCC), from Cell Line Services GmbH (CLS), from the Deutsche Sammlung von Mikroorganismen und Zellkulturen (DSMZ, German Collection of Microorganisms and Cell Cultures), from the Japanese Cancer Research Resources Bank (JCRB), from Public Health England, from the European Collection of Authenticated Cell Cultures (ECACC), from Asterand Biosciences, or from the National Cancer Institute (NCI). Cultivated tumour cells were plated at the density as indicated in Table 6 in 96-well multitier plates in 200 microL of their respective growth medium supplemented 10% fetal calf serum. […] Cell proliferation was determined by staining the cells with crystal violet: the cells were fixed by adding 20 microL/measuring point of an 11% glutaric aldehyde solution for 15 minutes at room temperature. […] The extinction was determined by photometry at a wavelength of 595 nm. The change of cell number, in percent, was calculated by normalization of the measured values to the extinction values of the zero-point plate (=0%) and the extinction of the untreated (0 μM) cells (=100%). […]

BT474 = assay: Proliferation assay: cell line panel, BT474; conditions: Homo sapiens, BT-474, 96 h, breast cancer, HER2 positive, 4 days, read-out: Result Category, IC50 (mean)
Source text: as §1

EFM192A = assay: Proliferation assay: cell line panel, EFM192A; conditions: Homo sapiens, EFM-192A, 96 h, breast cancer, HER2 positive, 4 days, read-out: Result Category, IC50 (mean)
Source text: as §1

HCC1419 = assay: Proliferation assay: cell line panel, HCC1419; conditions: Homo sapiens, 96 h, breast cancer, HER2 positive, 4 days, read-out: Result Category, IC50 (mean)
Source text: as §1

HCC1954 = assay: Proliferation assay: cell line panel, HCC1954; conditions: Homo sapiens, 96 h, breast cancer, HER2 positive, 4 days, read-out: Result Category, IC50 (mean)
Source text: as §1

CAL-120 = assay: Proliferation assay: cell line panel, CAL-120; conditions: Homo sapiens, 96 h, breast cancer, triple-negative, 4 days, read-out: Result Category, IC50 (mean)
Source text: as §1

HCC1143 = assay: Proliferation assay: cell line panel, HCC1143; conditions: Homo sapiens, 96 h, breast cancer, triple-negative, 4 days, read-out: Result Category, IC50 (mean)
Source text: as §1

HCC1806 = assay: Proliferation assay: cell line panel, HCC1806; conditions: Homo sapiens, 96 h, breast cancer, triple-negative, 4 days, read-out: Result Category, IC50 (mean)
Source text: as §1

MDA-MB-231 = assay: Proliferation assay: cell line panel, MDA-MB-231; conditions: Homo sapiens, 96 h, breast cancer, triple-negative, 4 days, read-out: Result Category, IC50 (mean)
Source text: as §1

MDA-MB-468 = assay: Proliferation assay: cell line panel, MDA-MB-468; conditions: Homo sapiens, 96 h, breast cancer, triple-negative, 4 days, read-out: Result Category, IC50 (mean)
Source text: as §1

HUH-7 = assay: Proliferation assay: cell line panel, HUH-7; conditions: Homo sapiens, 96 h, liver cancer, 4 days, read-out: Result Category, IC50 (mean)
Source text: as §1

JHH-7 = assay: Proliferation assay: cell line panel, JHH-7; conditions: Homo sapiens, JHH7, 96 h, liver cancer, 4 days, read-out: Result Category, IC50 (mean)
Source text: as §1

NCI-H1299 = assay: Proliferation assay: cell line panel, NCI-H1299; conditions: Homo sapiens, 96 h, lung cancer, non-small cell, 4 days, read-out: Result Category, IC50 (mean)
Source text: as §1

HT-144 = assay: Proliferation assay: cell line panel, HT-144; conditions: Homo sapiens, 96 h, melanoma, 4 days, read-out: Result Category, IC50 (mean)
Source text: as §1

COV318 = assay: Proliferation assay: cell line panel, COV318; conditions: Homo sapiens, 96 h, ovarian cancer, 4 days, read-out: Result Category, IC50 (mean)
Source text: as §1

Compound	IC50 (AU565)	IC50 (BT474)	IC50 (EFM192A)	IC50 (HCC1419)	IC50 (HCC1954)	IC50 (CAL-120)	IC50 (HCC1143)	IC50 (HCC1806)	IC50 (MDA-MB-231)	IC50 (MDA-MB-468)	IC50 (HUH-7)	IC50 (JHH-7)	IC50 (NCI-H1299)	IC50 (HT-144)	IC50 (COV318)
FC(F)(F)c1ccc(-c2cnc(CNc3nc(N4CCOCC4)nn4c(C(F)(F)F)cnc34)[nH]2)cc1 [Example 7, 2-(morpholin-4-yl)-7-(trifluoromethyl)-N-({5-[4-(trifluoromethyl)phenyl]-1H-imidazol-2-yl}methyl)imidazo[2,1-f][1,2,4]triazin-4-amine]	30 to 100 nM	30 to 100 nM	≥ 100 nM	30 to 100 nM	30 to 100 nM	≥ 100 nM	≥ 100 nM	≥ 100 nM	30 to 100 nM	30 to 100 nM	30 to 100 nM	≥ 100 nM	≥ 100 nM	30 to 100 nM	≥ 100 nM
FC(F)(F)Oc1ccc(-c2cnc(CNc3nc(N4CCOCC4)nn4c(C(F)(F)F)cnc34)[nH]2)cc1 [Example 8, 2-(morpholin-4-yl)-N-({5-[4-(trifluoromethoxy)phenyl]-1H-imidazol-2-yl}methyl)-7-(trifluoromethyl)imidazo[2,1-f][1,2,4]triazin-4-amine]	≤ 30 nM	30 to 100 nM	≥ 100 nM	30 to 100 nM	30 to 100 nM	30 to 100 nM	≥ 100 nM	30 to 100 nM	≥ 100 nM	30 to 100 nM	30 to 100 nM	30 to 100 nM	≥ 100 nM	30 to 100 nM	≥ 100 nM
